From PubChem BioAssay (NCI)
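Following 48 hours of exposure in 96-well plates, responses at five concentrations were used to interpolate endpoints linearly. At the TGI there is no net growth.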

Legend:
Assay in all cases: NCI-60 cell line screen, 48 h
A498 renal = test system: A498 renal
A549 NSCLC = test system: A549 NSCLC
CAKI-1 renal = test system: CAKI-1 renal
CCRF-CEM leukemia = test system: CCRF-CEM leukemia
COLO 205 colon = test system: COLO 205 colon
HCC-2998 colon = test system: HCC-2998 colon
HCT-15 colon = test system: HCT-15 colon
HL-60(TB) leukemia = test system: HL-60(TB) leukemia
LOX IMVI melanoma = test system: LOX IMVI melanoma
M14 melanoma = test system: M14 melanoma
MDA-N = test system: MDA-N
MOLT-4 leukemia = test system: MOLT-4 leukemia
NCI-H522 lung = test system: NCI-H522 lung
OVCAR-5 ovarian = test system: OVCAR-5 ovarian
OVCAR-8 ovarian = test system: OVCAR-8 ovarian
SF-539 CNS = test system: SF-539 CNS
SNB-75 CNS = test system: SNB-75 CNS
UACC-62 melanoma = test system: UACC-62 melanoma
UO-31 renal = test system: UO-31 renal

Row | SMILES | TGI (A498 renal) | TGI (A549 NSCLC) | TGI (CAKI-1 renal) | TGI (CCRF-CEM leukemia) | TGI (COLO 205 colon) | TGI (HCC-2998 colon) | TGI (HCT-15 colon) | TGI (HL-60(TB) leukemia) | TGI (LOX IMVI melanoma) | TGI (M14 melanoma) | TGI (MDA-N) | TGI (MOLT-4 leukemia) | TGI (NCI-H522 lung) | TGI (OVCAR-5 ovarian) | TGI (OVCAR-8 ovarian) | TGI (SF-539 CNS) | TGI (SNB-75 CNS) | TGI (UACC-62 melanoma) | TGI (UO-31 renal)
1 | CCCCCCCCCCCCCCCC(=O)OC1C(O)C(O)C(O)C(O)C12CO2 (centres undefined) | > 100 µM | > 100 µM | 29.8 µM | 41.1 µM | > 100 µM | > 100 µM | 63.5 µM | 45.7 µM | 53.2 µM | > 100 µM | > 100 µM | 42.7 µM | > 100 µM | > 100 µM | 57.5 µM | 63.9 µM | 93.2 µM | > 100 µM | > 100 µM
2 | COCCCNc1c2ccccc2nc2ccccc12 | 15.2 µM | 14 µM | 3.75 µM | 60.6 µM | 6.73 µM | 4.58 µM | 3.38 µM | 15.2 µM | 5.67 µM | 3.89 µM | 8.78 µM | > 100 µM | 6.8 µM | 6.93 µM | 15.5 µM | 8.59 µM |  | 6.35 µM | 8.01 µM
3 | Cc1c(C#N)c2nc3ccccc3n2c(=O)/c1=C/Nc1ccc(Cl)cc1 | 72.5 µM | > 100 µM | > 100 µM |  | > 100 µM | > 100 µM | > 100 µM | > 100 µM | > 100 µM | 40.9 µM | > 100 µM | > 100 µM | > 100 µM | > 100 µM | > 100 µM | 30.5 µM | 23.1 µM | 47.4 µM | 70.9 µM
4 | CC(=O)OCC1OC(O[C@H]2C=C[C@@H](C(=O)OCc3ccccc3)n3c(=O)n(-c4ccccc4)c(=O)n32)C(OC(C)=O)C(OC(C)=O)C1OC(C)=O (some centres undefined) | 5.33 µM | 35.3 µM | 2.98 µM | > 19.9 µM | 8.75 µM | 3.22 µM | 2.44 µM | > 100 µM |  | 2.95 µM | 7.1 µM | 5.72 µM | 2.83 µM | 4.75 µM | 7.41 µM | 3.21 µM | 23.5 µM | 3.18 µM | 2.93 µM
5 | COc1ccc(C=O)cc1OS(=O)(=O)C(F)(F)C(F)(F)C(F)(F)C(F)(F)F | > 68.2 µM | > 100 µM | > 100 µM | 63.1 µM | 62.4 µM |  | > 100 µM | 21.8 µM | 41.9 µM | > 80.5 µM | 44.7 µM | > 20 µM | > 60.1 µM | > 100 µM | > 100 µM | 41 µM | > 90.4 µM | 50.7 µM | > 60.9 µM
6 | CC/C=C\C=C/C(=O)N/C=C/CCC | > 100 µM | > 100 µM | > 100 µM | > 100 µM |  | > 100 µM | > 100 µM | > 100 µM | > 100 µM | > 100 µM | > 100 µM | 95.6 µM | 36 µM | > 100 µM | > 100 µM | > 100 µM | > 100 µM | > 100 µM | > 100 µM
7 | CCOC(=O)CC1Nc2ccccc2C12CCc1c([nH]c3ccccc13)C2C(=O)OCC (centres undefined) | > 100 µM | > 100 µM | > 100 µM | > 100 µM | 22.4 µM | > 100 µM | > 100 µM | 53.8 µM | > 100 µM | > 100 µM | > 100 µM | > 100 µM | > 100 µM | > 100 µM | > 100 µM | > 100 µM | 4.72 µM | > 100 µM | > 100 µM
8 | C/C(=N\O)c1cccc(Nc2c3ccccc3nc3occc23)c1 | > 100 µM | 58.5 µM | 9.3 µM | > 100 µM | > 100 µM | 52.4 µM | > 100 µM | > 100 µM | > 100 µM | > 100 µM | > 100 µM | > 100 µM | 4.83 µM | > 100 µM | 83 µM | 21.1 µM |  | 49.1 µM | > 100 µM
9 | CN(Cc1cnc2nc(N)nc(N)c2n1)c1ccc(C(=O)NCCCC(=O)O)cc1 | > 100 µM | > 100 µM | > 100 µM | > 100 µM | > 100 µM | > 100 µM | > 100 µM | > 100 µM | > 100 µM | > 100 µM | > 100 µM | > 100 µM | > 100 µM | > 100 µM | > 100 µM | > 100 µM | > 100 µM | > 100 µM | > 100 µM
10 | OC(Cc1cc(CC(O)(C(F)(F)F)C(F)(F)F)nc(CC(O)(C(F)(F)F)C(F)(F)F)c1)(C(F)(F)F)C(F)(F)F | 3.22 µM | 9.69 µM | 2.31 µM | > 10 µM | 2.14 µM | > 10 µM | 3.95 µM | > 10 µM | 1.34 µM | 8.25 µM | 4.09 µM | > 10 µM | 8.98 µM | > 10 µM | > 10 µM | 3.44 µM | 7.81 µM | 1.6 µM | 
11 | C=C1CC[C@@H]2[C@](C)(COC(=O)CCC(=O)O)CCC[C@@]2(C)[C@@H]1CCC1=CC(=O)OC1 | > 100 µM | > 100 µM | > 100 µM | > 100 µM | > 100 µM | > 100 µM | > 100 µM | > 100 µM | > 100 µM | > 100 µM | > 100 µM | > 100 µM | > 100 µM | > 100 µM | > 100 µM | > 100 µM | > 100 µM | > 100 µM | > 100 µM
12 | O=C(Nc1ccc(Cl)cc1)c1cc(S(=O)(=O)N2CCNNC2=O)c(S)cc1Cl | > 100 µM | > 100 µM | > 100 µM | > 100 µM | > 100 µM | > 100 µM | > 100 µM | > 100 µM | > 100 µM | > 100 µM | > 100 µM | > 100 µM | > 100 µM | > 100 µM | > 100 µM | > 100 µM | > 100 µM | > 100 µM | > 100 µM
13 | CN(C)NC1=NS(=O)(=O)c2cc3c(=O)n(C)[nH]c3cc2S1 | > 10 µM | > 10 µM | > 10 µM | > 10 µM | > 10 µM | > 10 µM | > 10 µM | > 10 µM | > 10 µM | > 10 µM | > 10 µM | > 10 µM | > 10 µM | > 10 µM | > 10 µM | > 10 µM | > 10 µM |  | > 10 µM
